Measurements: patent US6878730B2, “Quaternary ammonium compounds” (Pharmacia & UpJohn, priority 2002, dated 2005)

Test: Aerosol treatment for dyspnea, FEV1/FVC ratio
Type: in vivo
Settings: aerosol formulation, 50 μg every 8 hr continuously for dyspnea; after a week of treatment
Description: Ten minutes and 36 hours later, the mice are moved to whole body plethysmograph chambers. Bronchoconstriction is induced in mice by administration of an 80 mg/ml methacholine (MC) aerosol into the plethysmograph chambers for 5 minutes. The mice are allowed to inhale an aerosol containing 80 mg/ml methacholine following inhalation treatment with DPBS vehicle (Dulbecco's Phosphate Buffered Saline), or 80 mg/ml methacholine following inhalation treatment with 1.29 mg/ml of the title compound of example I. The average enhanced pause (Penh, lung resistance), corresponding to airflow resistance, is determined and statistically analyzed using Kruskal-Wallis one way ANOVA. In order to determine the baseline, saline aerosol (without methacholine) is also separately administered to the mice, treated with the compound of example I in an aerosol formulation, 50 μg every 8 hr continuously for dyspnea. After a week of treatment, the FEV1/FVC ratio improves to about 65%.

With C[N+]1(Cc2cccc(N)n2)CCC(NC(=O)[C@](O)(c2ccccc2)[C@@H]2CCC(F)(F)C2)CC1.[I-] (stereo partly drawn) [Example I, (2R)-N-[1-(6-aminopyridin-2-ylmethyl)1-methylpiperdin-4-yl]-2-[(1R)-3,3,-difluorocyclopentyl]-2-hydroxy-2-phenylacetamide iodide] the FEV1/FVC ratio was “about 65%”.
